These are literature values, as cited in US6485708B1, “Products and methods for the remineralization and prevention of demineralization of teeth” (Church & Dwight Co. Inc., priority 1999, dated 2002).

The conditions of the data set: aqueous solution, pH about 7.0, about 25° C.

Regarding `O.O.O=P([O-])([O-])O.[Ca+2]` [dicalcium phosphate dihydrate], the calcium cations released entry is “about 40 ppm”.
